{
  "source": "ChEMBL document CHEMBL5723587",
  "about": "“Data for DCP probe BI-113823” (2024)",
  "key": {"[1]": {"target": "Platelet-activating factor receptor (Homo sapiens) (UniProt P25105)", "experiment": "Activity against PAF/H in the Eurofins SafetyScreen44 (BI) by Radioactive Assay", "details": "Compound concentration 10.0 uM"}, "[2]": {"target": "D(3) dopamine receptor (Homo sapiens) (UniProt P35462)", "experiment": "Activity against D3/HU in the Eurofins SafetyScreen44 (BI) by Radioactive Assay", "details": "Compound concentration 10.0 uM"}, "[3]": {"target": "3',5'-cyclic-AMP phosphodiesterase 4A (Rattus norvegicus) (UniProt P54748)", "experiment": "Activity against ROLIPRAM/R in the Eurofins SafetyScreen44 (BI) by Radioligand Binding", "details": "Compound concentration 10.0 uM"}, "[4]": {"target": "Gamma-aminobutyric acid receptor subunit alpha-1 (Rattus norvegicus) (UniProt P62813)", "experiment": "Activity against GABAACENTR in the Eurofins SafetyScreen44 (BI) by Radioactive Assay", "details": "Compound concentration 10.0 uM"}, "[5]": {"target": "L-type calcium channel, Cav1.2 alpha-1C (CA+/DILSI/RA) (Rattus norvegicus, UniProt P22002)", "sequence (P22002 whole entry)": "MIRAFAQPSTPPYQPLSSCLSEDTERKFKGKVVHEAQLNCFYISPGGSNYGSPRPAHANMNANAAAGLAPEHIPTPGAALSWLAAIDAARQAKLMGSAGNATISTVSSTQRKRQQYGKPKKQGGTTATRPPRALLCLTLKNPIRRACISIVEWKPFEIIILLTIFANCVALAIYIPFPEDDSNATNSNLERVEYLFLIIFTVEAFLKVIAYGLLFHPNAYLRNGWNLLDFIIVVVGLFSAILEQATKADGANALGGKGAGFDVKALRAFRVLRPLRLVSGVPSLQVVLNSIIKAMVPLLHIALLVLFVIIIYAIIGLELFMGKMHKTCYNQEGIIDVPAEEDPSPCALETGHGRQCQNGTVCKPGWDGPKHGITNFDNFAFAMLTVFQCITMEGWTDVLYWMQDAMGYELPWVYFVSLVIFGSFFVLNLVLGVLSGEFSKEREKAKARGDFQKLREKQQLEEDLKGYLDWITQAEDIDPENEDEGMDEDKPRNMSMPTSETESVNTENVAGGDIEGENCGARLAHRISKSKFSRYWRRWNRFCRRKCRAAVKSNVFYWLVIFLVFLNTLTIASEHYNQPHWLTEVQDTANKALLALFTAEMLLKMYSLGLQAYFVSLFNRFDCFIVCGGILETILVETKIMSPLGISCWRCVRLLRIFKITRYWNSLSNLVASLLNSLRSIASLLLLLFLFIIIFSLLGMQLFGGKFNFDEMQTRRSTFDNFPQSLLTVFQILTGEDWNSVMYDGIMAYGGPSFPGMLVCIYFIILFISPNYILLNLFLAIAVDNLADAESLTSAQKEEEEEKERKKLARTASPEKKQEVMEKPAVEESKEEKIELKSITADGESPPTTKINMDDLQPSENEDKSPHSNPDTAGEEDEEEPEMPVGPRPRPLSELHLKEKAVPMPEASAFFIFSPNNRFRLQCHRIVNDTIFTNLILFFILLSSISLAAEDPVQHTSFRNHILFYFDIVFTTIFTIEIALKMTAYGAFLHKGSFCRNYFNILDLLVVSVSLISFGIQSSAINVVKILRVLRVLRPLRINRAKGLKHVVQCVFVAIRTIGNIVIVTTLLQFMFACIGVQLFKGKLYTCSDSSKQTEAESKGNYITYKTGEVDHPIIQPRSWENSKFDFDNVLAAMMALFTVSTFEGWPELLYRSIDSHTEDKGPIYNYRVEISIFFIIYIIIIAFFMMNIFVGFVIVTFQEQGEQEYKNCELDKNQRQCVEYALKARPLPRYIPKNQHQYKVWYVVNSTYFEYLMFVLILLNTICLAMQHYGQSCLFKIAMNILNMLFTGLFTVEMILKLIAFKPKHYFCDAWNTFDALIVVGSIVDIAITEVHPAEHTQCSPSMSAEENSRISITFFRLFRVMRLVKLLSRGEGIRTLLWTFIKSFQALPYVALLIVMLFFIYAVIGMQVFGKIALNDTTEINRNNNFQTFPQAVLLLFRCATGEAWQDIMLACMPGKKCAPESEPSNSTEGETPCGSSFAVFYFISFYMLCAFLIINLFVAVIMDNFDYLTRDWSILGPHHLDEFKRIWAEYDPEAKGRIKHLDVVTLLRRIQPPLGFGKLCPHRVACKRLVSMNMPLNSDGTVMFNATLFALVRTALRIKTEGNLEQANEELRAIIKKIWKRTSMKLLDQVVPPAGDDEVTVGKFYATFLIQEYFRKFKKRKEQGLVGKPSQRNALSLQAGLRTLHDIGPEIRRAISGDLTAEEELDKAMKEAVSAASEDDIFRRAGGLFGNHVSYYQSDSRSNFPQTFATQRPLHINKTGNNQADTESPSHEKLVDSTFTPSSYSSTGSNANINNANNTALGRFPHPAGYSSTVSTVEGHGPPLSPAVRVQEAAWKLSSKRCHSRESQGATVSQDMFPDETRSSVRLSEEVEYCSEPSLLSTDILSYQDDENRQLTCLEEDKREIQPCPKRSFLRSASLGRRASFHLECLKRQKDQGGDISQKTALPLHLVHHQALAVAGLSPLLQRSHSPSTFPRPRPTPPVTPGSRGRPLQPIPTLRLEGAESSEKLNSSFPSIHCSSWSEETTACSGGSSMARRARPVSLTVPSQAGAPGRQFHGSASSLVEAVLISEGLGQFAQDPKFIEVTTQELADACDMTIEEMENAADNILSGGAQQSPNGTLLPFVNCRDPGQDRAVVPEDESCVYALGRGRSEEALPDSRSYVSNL", "experiment": "Activity against CA+/DILSI/RA in the Eurofins SafetyScreen44 (BI) by Radioactive Assay", "details": "compound concentration 10 uM, read-out: % Ctrl"}, "[6]": {"target": "Muscarinic acetylcholine receptor M3 (Homo sapiens) (UniProt P20309)", "experiment": "Activity against M3/HU in the Eurofins SafetyScreen44 (BI) by Radioactive Assay", "details": "Compound concentration 10.0 uM"}, "[7]": {"target": "Glutamate NMDA receptor (Rattus norvegicus) (UniProt P35439+Q00959+Q00960+Q00961+Q62645+Q8VHN2+Q9R1M7)", "experiment": "Agonist activity in the Eurofins SafetyScreen44 (BI) against NMDAAGSI/RA by Radioactive Assay", "type": "protein-complex assay", "details": "Compound concentration 10.0 uM"}, "[8]": {"target": "B1 bradykinin receptor (Homo sapiens) (UniProt P46663)", "experiment": "Activity against B1/H in the Eurofins SafetyScreen44 (BI) by Radioactive Assay", "details": "Compound concentration 10.0 uM"}, "[9]": {"target": "Glutamate receptor ionotropic, kainate 1 (Rattus norvegicus) (UniProt P22756)", "sequence (P22756 whole entry)": "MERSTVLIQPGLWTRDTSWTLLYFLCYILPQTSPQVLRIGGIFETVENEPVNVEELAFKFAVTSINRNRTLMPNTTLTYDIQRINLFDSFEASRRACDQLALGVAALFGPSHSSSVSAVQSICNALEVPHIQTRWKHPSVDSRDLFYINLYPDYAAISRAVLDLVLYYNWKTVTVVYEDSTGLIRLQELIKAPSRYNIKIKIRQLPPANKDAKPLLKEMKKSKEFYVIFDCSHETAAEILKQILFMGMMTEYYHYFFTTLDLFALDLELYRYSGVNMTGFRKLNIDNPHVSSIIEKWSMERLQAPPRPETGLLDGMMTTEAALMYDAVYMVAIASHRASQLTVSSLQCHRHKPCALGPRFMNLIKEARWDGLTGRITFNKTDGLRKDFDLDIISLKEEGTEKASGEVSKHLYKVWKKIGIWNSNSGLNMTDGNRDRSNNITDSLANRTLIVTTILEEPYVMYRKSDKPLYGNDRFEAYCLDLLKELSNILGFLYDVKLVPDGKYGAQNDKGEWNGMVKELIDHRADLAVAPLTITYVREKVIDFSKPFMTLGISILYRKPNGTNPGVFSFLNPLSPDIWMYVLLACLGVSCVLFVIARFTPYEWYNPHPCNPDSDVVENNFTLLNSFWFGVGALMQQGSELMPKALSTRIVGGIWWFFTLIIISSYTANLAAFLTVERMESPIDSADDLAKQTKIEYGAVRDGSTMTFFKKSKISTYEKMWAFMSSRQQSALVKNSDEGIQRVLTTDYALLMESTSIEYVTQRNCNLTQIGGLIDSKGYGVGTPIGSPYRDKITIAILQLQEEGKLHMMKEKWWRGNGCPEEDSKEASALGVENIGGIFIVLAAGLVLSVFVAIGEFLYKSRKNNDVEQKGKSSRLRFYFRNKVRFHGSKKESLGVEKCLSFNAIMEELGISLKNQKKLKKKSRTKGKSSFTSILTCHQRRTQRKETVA", "experiment": "Activity against KAINATE/R in the Eurofins SafetyScreen44 (BI) by Radioactive Assay", "details": "Compound concentration 10.0 uM"}, "B1 bradykinin receptor": {"target": "B1 bradykinin receptor (Oryctolagus cuniculus, UniProt P48748)", "experiment": "Radioligand binding assay (displacement of kallidin, rabbit BDKRB1 ) at 10 µM ( Non-specific binding is estimated in the presence of 10 µM Des-Arg9- (Leu8)-Bradykinin. Membranes are filtered and washed, the filters are then counted to determine [3H]Kallidin[des-Arg10, Leu9] specifically bound.)", "design": "compound concentration 10 uM"}, "[10]": {"target": "ATP-sensitive inward rectifier potassium channel 1 isoform X1 (Mesocricetus auratus) (UniProt A0A1U8CU73)", "experiment": "Activity against K+/KATP/HA in the Eurofins SafetyScreen44 (BI) by Radioactive Assay", "details": "Cricetinae; Compound concentration 10.0 uM"}, "[11]": {"target": "Delta-type opioid receptor (Homo sapiens) (UniProt P41143)", "experiment": "Activity against DELTA/HU in the Eurofins SafetyScreen44 (BI) by Radioactive Assay", "details": "Compound concentration 10.0 uM"}, "[12]": {"target": "Glutamate receptor ionotropic, NMDA 2A (Rattus norvegicus) (UniProt Q00959)", "sequence (Q00959 23-1464 limits assumed)": "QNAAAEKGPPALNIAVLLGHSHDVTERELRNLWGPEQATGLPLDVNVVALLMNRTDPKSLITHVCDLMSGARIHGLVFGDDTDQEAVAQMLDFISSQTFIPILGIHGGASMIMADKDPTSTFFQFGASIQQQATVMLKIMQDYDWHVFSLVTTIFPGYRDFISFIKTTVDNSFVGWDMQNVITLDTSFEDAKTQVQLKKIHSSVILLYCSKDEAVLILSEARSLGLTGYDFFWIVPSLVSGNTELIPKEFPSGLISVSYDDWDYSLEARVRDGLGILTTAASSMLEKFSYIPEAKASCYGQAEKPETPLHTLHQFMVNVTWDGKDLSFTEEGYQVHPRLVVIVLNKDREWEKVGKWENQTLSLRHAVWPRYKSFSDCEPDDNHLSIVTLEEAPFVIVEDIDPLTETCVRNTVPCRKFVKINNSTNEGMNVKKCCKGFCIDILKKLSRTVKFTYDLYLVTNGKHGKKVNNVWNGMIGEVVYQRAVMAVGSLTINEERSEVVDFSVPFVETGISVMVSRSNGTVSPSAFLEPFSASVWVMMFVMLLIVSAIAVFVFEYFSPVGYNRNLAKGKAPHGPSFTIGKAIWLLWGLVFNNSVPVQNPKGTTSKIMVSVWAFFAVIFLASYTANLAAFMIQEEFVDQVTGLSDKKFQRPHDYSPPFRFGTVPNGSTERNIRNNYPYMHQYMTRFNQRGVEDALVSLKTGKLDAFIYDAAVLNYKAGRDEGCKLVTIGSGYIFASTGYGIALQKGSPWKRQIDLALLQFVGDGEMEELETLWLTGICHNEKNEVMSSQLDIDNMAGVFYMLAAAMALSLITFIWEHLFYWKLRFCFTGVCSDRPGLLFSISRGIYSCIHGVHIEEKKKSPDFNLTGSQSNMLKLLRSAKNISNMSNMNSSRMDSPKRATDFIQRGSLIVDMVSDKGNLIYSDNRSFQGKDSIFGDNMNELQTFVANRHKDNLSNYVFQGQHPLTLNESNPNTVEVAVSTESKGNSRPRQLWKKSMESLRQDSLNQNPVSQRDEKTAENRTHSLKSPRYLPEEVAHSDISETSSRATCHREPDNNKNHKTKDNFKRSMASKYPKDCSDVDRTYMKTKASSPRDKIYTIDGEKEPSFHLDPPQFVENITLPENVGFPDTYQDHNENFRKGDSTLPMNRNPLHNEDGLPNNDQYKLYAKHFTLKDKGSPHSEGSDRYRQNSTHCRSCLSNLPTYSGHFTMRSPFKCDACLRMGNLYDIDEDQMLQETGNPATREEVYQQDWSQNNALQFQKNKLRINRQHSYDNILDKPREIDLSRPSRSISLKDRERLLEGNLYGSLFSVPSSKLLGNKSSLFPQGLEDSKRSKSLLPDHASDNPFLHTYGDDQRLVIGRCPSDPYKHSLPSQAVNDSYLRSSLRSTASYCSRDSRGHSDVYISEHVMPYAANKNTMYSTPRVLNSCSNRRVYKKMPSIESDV", "experiment": "Activity against NMDAPHSI/R in the Eurofins SafetyScreen44 (BI) by Radioactive Assay", "details": "Compound concentration 10.0 uM"}, "[13]": {"target": "Adenosine receptor A2a (Homo sapiens) (UniProt P29274)", "experiment": "Activity against A2A/HU in the Eurofins SafetyScreen44 (BI)", "details": "Compound concentration 10.0 uM"}, "[14]": {"target": "Melatonin receptor type 1A (Homo sapiens) (UniProt P48039)", "experiment": "Activity against MT1/H in the Eurofins SafetyScreen44 (BI) by Radioactive Assay", "details": "Compound concentration 10.0 uM"}, "[15]": {"target": "Alpha-2A adrenergic receptor (Homo sapiens) (UniProt P08913)", "experiment": "Activity against ALPHA2A/H in the Eurofins SafetyScreen44 (BI) by Radioactive Assay", "details": "Compound concentration 10.0 uM"}, "[16]": {"target": "Alpha-1B adrenergic receptor (Rattus norvegicus) (UniProt P15823)", "experiment": "Activity against ALPHA1B/R in the Eurofins SafetyScreen44 (BI) by Radioactive Assay", "details": "Compound concentration 10.0 uM"}, "[17]": {"target": "Endothelin-1 receptor (Homo sapiens) (UniProt P25101)", "experiment": "Activity against ETA/HU in the Eurofins SafetyScreen44 (BI) by Radioactive Assay", "details": "Compound concentration 10.0 uM"}, "[18]": {"target": "Beta-2 adrenergic receptor (Homo sapiens) (UniProt P07550)", "sequence (P07550 whole entry, looked up)": "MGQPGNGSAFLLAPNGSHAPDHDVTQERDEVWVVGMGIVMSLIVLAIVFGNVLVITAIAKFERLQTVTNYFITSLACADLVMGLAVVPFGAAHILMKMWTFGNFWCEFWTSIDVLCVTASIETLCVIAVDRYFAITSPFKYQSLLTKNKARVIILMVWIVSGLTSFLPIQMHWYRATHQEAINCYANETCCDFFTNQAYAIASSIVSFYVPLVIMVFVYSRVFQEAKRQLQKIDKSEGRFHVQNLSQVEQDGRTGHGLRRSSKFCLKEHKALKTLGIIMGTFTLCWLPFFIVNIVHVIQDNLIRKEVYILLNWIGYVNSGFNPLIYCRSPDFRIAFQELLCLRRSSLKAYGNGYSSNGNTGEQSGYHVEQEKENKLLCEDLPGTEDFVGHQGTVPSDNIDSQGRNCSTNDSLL", "experiment": "Activity against BETA2/HU in the Eurofins SafetyScreen44 (BI) by Radioactive Assay", "details": "Compound concentration 10.0 uM"}, "[19]": {"target": "Adenosine receptor A3 (Homo sapiens) (UniProt P0DMS8)", "experiment": "Activity against A3/H in the Eurofins SafetyScreen44 (BI)", "details": "Compound concentration 10.0 uM"}, "[20]": {"target": "Androgen receptor (Rattus norvegicus) (UniProt P15207)", "experiment": "Activity against TESTOST/RA in the Eurofins SafetyScreen44 (BI) by Others", "details": "Compound concentration 10.0 uM"}, "[21]": {"target": "Acetylcholine receptor subunit alpha (Homo sapiens) (UniProt P02708)", "experiment": "Activity against NACH/H in the Eurofins SafetyScreen44 (BI) by Radioligand Binding", "details": "Compound concentration 10.0 uM"}, "[22]": {"target": "Neuropeptide Y receptor type 2 (Homo sapiens) (UniProt P49146)", "experiment": "Activity against Y2/HU in the Eurofins SafetyScreen44 (BI) by Radioactive Assay", "details": "Compound concentration 10.0 uM"}, "[23]": {"target": "B2 bradykinin receptor (Homo sapiens) (UniProt P30411)", "experiment": "Activity against B2/HU in the Eurofins SafetyScreen44 (BI) by Radioactive Assay", "details": "Compound concentration 10.0 uM"}, "[24]": {"target": "Alpha-1D adrenergic receptor (Homo sapiens) (UniProt P25100)", "experiment": "Activity against ALPHA1D/H in the Eurofins SafetyScreen44 (BI) by Others", "details": "Compound concentration 10.0 uM"}, "[25]": {"target": "P2X purinoceptor (Oryctolagus cuniculus) (UniProt G1U3D6)", "experiment": "Activity against P2X/RB in the Eurofins SafetyScreen44 (BI) by Radioactive Assay", "details": "Compound concentration 10.0 uM"}, "[26]": {"target": "P2Y purinoceptor 1 (Rattus norvegicus) (UniProt P49651)", "experiment": "Activity against P2Y/RAT in the Eurofins SafetyScreen44 (BI) by Radioactive Assay", "details": "Compound concentration 10.0 uM"}, "[27]": {"target": "Interleukin-1 receptor type 1 (Mus musculus) (UniProt P13504)", "experiment": "Activity against IL-1ALPHA/M in the Eurofins SafetyScreen44 (BI) by Others", "details": "Compound concentration 10.0 uM"}, "[28]": {"target": "Muscarinic acetylcholine receptor M1 (Homo sapiens) (UniProt P11229)", "experiment": "Activity against M1/HU in the Eurofins SafetyScreen44 (BI) by Radioactive Assay", "details": "Compound concentration 10.0 uM"}, "[29]": {"target": "Sodium-dependent serotonin transporter (Homo sapiens) (UniProt P31645)", "experiment": "Activity against 5HTTRANS/HU in the Eurofins SafetyScreen44 (BI) by Radioactive Assay", "details": "Compound concentration 10.0 uM"}, "[30]": {"target": "Thyroid hormone receptor alpha (Rattus norvegicus) (UniProt P63059)", "experiment": "Activity against THYROID HORM in the Eurofins SafetyScreen44 (BI) by Radioactive Assay", "details": "Homo sapiens; Compound concentration 10.0 uM"}, "[31]": {"target": "Histamine H1 receptor (Homo sapiens) (UniProt P35367)", "experiment": "Activity against H1/H in the Eurofins SafetyScreen44 (BI) by Radioactive Assay", "details": "Compound concentration 10.0 uM"}, "[32]": {"target": "Pyroglutamylated RF-amide peptide receptor (Homo sapiens) (UniProt Q96P65)", "experiment": "Activity against GPR103 in the Eurofins SafetyScreen44 (BI) by Radioactive Assay", "details": "Compound concentration 10.0 uM"}, "[33]": {"target": "Glutamate receptor ionotropic, NMDA 1 (Rattus norvegicus) (UniProt P35439)", "experiment": "Inhibitor of NMDAGLSI/RA in the Eurofins SafetyScreen44 (BI) by Scintillation counting", "details": "Compound concentration 10.0 uM"}},
  "note": "Activity calls are given as the source filed them. No cut-off for these calls is given here.",
  "data": [
    {"compound": "COc1cc(C)c(S(=O)(=O)N(C)CCOCC(=O)N(C)[C@H]2CCC[C@@H](N3CCN(C)CC3)C2)c(C)c1", "values": [
      {"measurement": "residual activity", "setting": "[1]", "result": 87, "unit": "%"},
      {"measurement": "residual activity", "setting": "[2]", "result": 86, "unit": "%"},
      {"measurement": "residual activity", "setting": "[3]", "result": 84, "unit": "%"},
      {"measurement": "residual activity", "setting": "[4]", "result": 96, "unit": "%"},
      {"measurement": "activity at 10 µM", "setting": "[5]", "result": "86% (not active)"},
      {"measurement": "residual activity", "setting": "[6]", "result": 84, "unit": "%"},
      {"measurement": "residual activity", "setting": "[7]", "result": 92, "unit": "%"},
      {"measurement": "residual activity", "setting": "[8]", "result": 22, "unit": "%"},
      {"measurement": "residual activity", "setting": "[9]", "result": 93, "unit": "%"},
      {"measurement": "Ki", "setting": "B1 bradykinin receptor", "result": "15.3 nM (active)"},
      {"measurement": "residual activity", "setting": "[10]", "result": 90, "unit": "%"},
      {"measurement": "residual activity", "setting": "[11]", "result": 86, "unit": "%"},
      {"measurement": "residual activity", "setting": "[12]", "result": 111, "unit": "%"},
      {"measurement": "residual activity", "setting": "[13]", "result": 97, "unit": "%"},
      {"measurement": "residual activity", "setting": "[14]", "result": 97, "unit": "%"},
      {"measurement": "residual activity", "setting": "[15]", "result": 85, "unit": "%"},
      {"measurement": "residual activity", "setting": "[16]", "result": 96, "unit": "%"},
      {"measurement": "residual activity", "setting": "[17]", "result": 96, "unit": "%"},
      {"measurement": "residual activity", "setting": "[18]", "result": 103, "unit": "%"},
      {"measurement": "residual activity", "setting": "[19]", "result": 101, "unit": "%"},
      {"measurement": "residual activity", "setting": "[20]", "result": 96, "unit": "%"},
      {"measurement": "residual activity", "setting": "[21]", "result": 100, "unit": "%"},
      {"measurement": "residual activity", "setting": "[22]", "result": 111, "unit": "%"},
      {"measurement": "residual activity", "setting": "[23]", "result": 108, "unit": "%"},
      {"measurement": "residual activity", "setting": "[24]", "result": 96, "unit": "%"},
      {"measurement": "residual activity", "setting": "[25]", "result": 100, "unit": "%"},
      {"measurement": "residual activity", "setting": "[26]", "result": 108, "unit": "%"},
      {"measurement": "residual activity", "setting": "[27]", "result": 79, "unit": "%"},
      {"measurement": "residual activity", "setting": "[28]", "result": 88, "unit": "%"},
      {"measurement": "residual activity", "setting": "[29]", "result": 108, "unit": "%"},
      {"measurement": "residual activity", "setting": "[30]", "result": 84, "unit": "%"},
      {"measurement": "residual activity", "setting": "[31]", "result": 85, "unit": "%"},
      {"measurement": "residual activity", "setting": "[32]", "result": 105, "unit": "%"},
      {"measurement": "residual activity", "setting": "[33]", "result": 93, "unit": "%"}
    ]}
  ]
}
